In patent publication US8846747B2, “Compounds and methods for altering lifespan of eukaryotic organisms” (University of Rochester, priority 2009, dated 2014):

How the values were obtained:
TNF-α-treated mice = experiment: TNF-α-induced vascular inflammation in mice (leukocyte rolling in mesenteric vessels); assay type: in vivo, mouse; conditions: ip 6 mg/kg once (1 hour) or twice (24 hours and 1 hour) prior to TNF-α; compared to TNF-α-treated control mice; FIG. 5
Method: FIG. 5. Graphical results showing in vivo reduction of TNF-α-induced vascular inflammation in mice. To obtain the data summarized in FIG. 5, mice (3 each group) were injected with vehicle or Cob 1-2 (ip, 6 mg/kg in DMSO). Two treatments were used: i) 1 dose an hour before TNFa and, ii) 2 doses (24 hrs and 1 hr before TNFa ). TNFa was administered ip (20 ug/kg). 3 hours post TNFa administration, mice were anesthetized, their mesentery was exposed and placed on an inverted fluorescent microscope stage. Lymphocyte velocities within veins was determined by analyzing video recordings
In vivo reduction of TNF-α-induced vascular inflammation in mice: The affects of drugs on vascular inflammation can be assessed by quantifying the rates of leukocytes rolling in mouse mesenteric vessels following intraperitoneal administration of TNF-α (Craig N. Morrell, Kenji Matsushita, and Charles J. Lowenstein. A Novel Inhibitor of N-Ethylmaleimide-Sensitive Factor Decreases Leukocyte Trafficking and Peritonitis. JPET 2005; 314:155-161). Vascular inflammation was induced in two groups of mice that were treated with C1-2 either once (1 hour) or twice (24 hours and 1 hour) prior to TNF-α administration.

[1] = tested on: mice exposed to cigarette smoke; experiment: cigarette smoke-induced inflammation of mouse lungs; assay type: in vivo; conditions: ip 5 mg/kg
Method: FIG. 4. […] To obtain the data summarized in FIG. 4, Mice were exposed to cigarette smoke or filtered air for 3 consecutive days. They were treated ip with vehicle or Cob 1-2 (5 mg/kg) in DMSO: 1 group was treated daily during smoke exposure period and 1 group was pre-treated with 2 doses per week during the week prior to the smoke exposure and daily during the smoke exposure. On day 4, mice were sacrificed. Their lungs were washed and BAL fluid was stained for Europhiles count. The lungs were homogenized for ELISA quantifying MCP-1 levels.
In vivo prevention of cigarette smoke-induced inflammation of mouse lungs: Exposing mice to cigarette smoke induces an acute inflammatory response in the lungs. Cigarette smoke-induced inflammation in the lungs was assessed by quantifying the ratio of macrophages to Europhiles in bronchoalveolar lavage fluid (BALF), and levels of pro-inflammatory markers such as MCP-1 in lung tissue (Yao H, Edirisinghe I, Rajendrasozhan S, Yang S R, Caito S, Adenuga D, Rahman I. Cigarette smoke-mediated inflammatory and oxidative responses are strain-dependent in mice. Am. J. Physiol Lung Cell Mol Physiol 2008; 294: L1174-L1186.).

RAW 264.7 cells = experiment: LPS-induced TNF-α secretion from RAW 264.7 cells (ELISA); assay type: cell-based, murine; conditions: compound 1 micromolar, LPS 10 ng/ml for 6 hrs; FIG. 3
Method: FIG. 3. […] To obtain the data summarized in FIG. 3, RAW […] cells were incubated with Scrims (compounds of present invention) (1 uM), PI3K inhibitor positive control (LY-294002; 25 uM) or vehicle (DMSO) for 1 hr. LPS (10 ng/ml) was added to the medium. 6 hrs post LPS administration medium was collected and analyzed for TNFa levels using ELISA.
In vitro anti-inflammatory activity in RAW 264.7 cells (murine leukaemic monocyte macrophage cell line): Lipopolysaccharide (LPS)-induced secretion of cytokines from RAW cells is a recognized in vitro assay for anti-inflammatory drugs. The anti-inflammatory activities of C1-1, C1-2, C1-3, C1-4, and C1-5 in the RAW cell model. RAW cells exposed to LPS were incubated with each of the five molecules at 1 micromolar concentration. The PIK3 inhibitor LY-294002 was used at 25 micromolar as a positive control. […] LPS was administered at 10 ng/ml for 6-hrs. TNF-α levels were quantified by ELISA assay. Results are presented as % of control with standard deviations of three replicates.

DeaD strain BB579 = experiment: yeast Death of Daughters (DeaD) lifespan assay, reversal of nicotinamide (NAM) lifespan shortening; assay type: cell-based, S. cerevisiae (yeast); conditions: Saccharomyces cerevisiae, BB579, read-out: C50 (concentration that yields half the maximal activity) by DeaD assay
Method: The C50 (50% maximal activity) is a measure of the efficacy of a compound as a LAC and is determined by quantifying the dose-response curve for each LAC by DeaD assay in the presence and absence of nicotinamide. The C50 is the concentration of LAC that yields half the maximal activity. Dose response curves will generally peak and then decline. The decline is most likely due to toxicity at higher LAC concentrations. The C50 is determined relative to the maximal lifespan extension (the peak value). C50 values are provided for C1-5.
The compounds listed in Table 1 of Example 3 were assessed for their anti-aging activities using the yeast Death of Daughters (DeaD) explicative lifespan assay. Specifically, the compounds were assessed for their capacity to reverse the lifespan shortening effect of exogenous nicotinamide (NAM), which is a known inhibitor of the anti-aging protein Sir2p (Anderson et al., 2003; Bitterman et al., 2002). These compounds were compared to the activities of known cluster 1 compounds, S3-5, and #3-11.
“Activity” here is defined herein as the fold improvement in DeaD lifespan in the presence of 0.75 mM NAM relative to lifespan in the absence of cluster 1 compounds, over a range of compound concentrations between 0.5 nm-1 μm. This “activity” value is a means of assessing the usefulness of a compound as a LAC. The assays were performed as follows. DeaD strain BB579 was grown overnight in a permissive (galactose-containing) medium to mid-log phase, and then diluted to an OD600 of 0.0001 in restrictive (glucose-containing) medium with 0.75 mM NAM and the compound to be tested. Cells were then incubated at 30° C. for 3 days, with shaking and OD600 measurement every 20 minutes. The OD600 reading after 60 hours in restrictive medium, normalized to the same measurement for the “no drug” control, was used as the number for comparison.
Five of the compounds with higher activity than S3-5 were selected for further study and were designated C1-1, C1-2, C1-3, C1-4, and C1-5 (see Table 2, Example 4). All data in FIGS. 1A(1)-(6) are from media containing 0.75 mM NAM. Note the different ranges of the X axes in FIGS. 1A(1)-(6)—very different C50 values for the compounds of the present invention compared the known C1 cluster compounds. […] All five had C50 values below 50 nM, while the C50 value for S3-5 was about 650 nM, and the C50 for S1-9 was about 350 nM.

[2] = tested on: strain FY839 (healthy wild-type); experiment: Toxicity of compounds by yeast growth assay; assay type: cell-based; conditions: FY839, inset in FIG. 2
Method: The toxicity of compounds C1-1, C1-2, C1-3, C1-4, and C1-5 in yeast was assessed by determining their effects on growth of a wild-type yeast strain. FIG. 2 is a graphical representation of the toxicity data. The yeast used was strain FY839 (healthy wild-type) growing in SCD. At 12 hours all were in log phase. […] This concentration is many-fold higher than the effective concentrations of these compounds as assessed by DeaD lifespan assays.

Structure (SMILES): CCC(=O)C1C(=O)CC(c2ccc(F)cc2)CC1=O (stereo not drawn) [SRI# 22790, 1,3-cyclohexanedione, 2-propanoyl-5-[4-fluorophenyl]-]
- leukocytes velocity in mesenteric vessels (TNF-α-treated mice): significantly increased leukocytes velocity
- total Europhiles count in BAL fluid ([1]; 3 days smoke exposure, FIG. 4A): lowered total Europhiles count to near background levels
- MCP-1 levels in lungs ([1]; lung homogenate ELISA, FIG. 4B): decreased in a statistically significant fashion
- reduction of secreted TNF-α relative to vehicle treated cells (RAW 264.7 cells): exhibited anti-inflammatory activity
- EC50 (DeaD strain BB579): < 50 nM
- toxic effects on growth at concentrations below 1 μM [2]: little or no toxic effects on growth
